Reference: patent US12252701B2, “Chimeric antigen receptor T cell therapy” (KITE PHARMA, INC., priority 2020, dated 2025)
Where two headings read alike, the source gives them in different places.

Legend:
[1] = Clinical pharmacokinetic data converted to in vitro concentrations; settings: human, in vivo
From the text: Given the different potencies of the JAK inhibitors and different pharmacokinetic properties for each drug, it was sought to test each drug at a relevant range of physiological concentrations based on clinical dosing and reported pharmacokinetic data from repeat dose studies. Reported Cmax values in patient sera were converted to in vitro concentrations and adjusted for reported plasma protein binding.

[2] = test system: NALM6.GFP.LUC.CD19 target cells; experiment: Serial killing assay; type: cell-based, human
Method: CD19 CAR-T cells were thawed in RPMI media supplemented with HEPES, Penicillin/Streptomycin/L-Glutamine and 10% FBS and rested overnight. The following day, drugs were serially diluted and prepared in 96-well plates. Rested T cells were counted and normalized so that 25,000 or 8,333 T cells were plated with 25,000 NALM6.GFP.LUC.CD19 target cells (1:1 or 1:3 Effector:Target ratio) in the prepared 96-well plates. At 16 hour post-incubation and every 3-4 days, T cell killing of targets was measured via luciferase detection. D-luciferin substrate was added to the co-culture wells at a final concentration of 0.14 mg/mL and plates were incubated at 37° C. in the dark for 10 minutes. Luminescent signal was read immediately after in a VarioSkan™ LUX microplate reader. T cell-mediated cytotoxicity was calculated as follows: % Cytotoxicity=[1−luciferase signal of (sample of interest/target alone control)]*100. Afterwards, co-cultures were stained with LIVE/DEAD and antibodies against CD4, CD8 and KIP-1 and then washed. Cells were then analyzed and quantified via the Attune NxT flow cytometer. T cells were then repeatedly stimulated with fresh 25,000 target cells, and this process was repeated every 3-4 days.

in vitro = settings: human
[3] = cited from earlier work
CAR-T cells = experiment: CAR-T cell expansion assay (KIP-1 or CD3/CD28 stimulation); settings: for % viability: CD3/CD28
CD19 CAR T cells = experiment: CAR T cell cytokine production (Luminex) under CD19 K562, KIP-1 or CD2/3/28 stimulation; settings: for IC50: Homo sapiens, T-cell
Method: Cryopreserved healthy donor CLP CD19 CAR T cells were thawed and rested overnight in 100 U/ml of IL-2 at 1×10^6/ml. 2.5×10^5 CD19 CART cells were plated in 96-well RB plate wells in a total volume of 200 μl of R10 culture media. […] CD19 CART cell cytokine production was allowed to proceed through 72 hours in the presence of stimulator and JAKi or steroid. Following 72 h of culture, 100 μl of the cell supernatant of each well were harvested and stored at −80° C. for later Luminex/Bioplex-200 cytokine analysis. Briefly, stored supernatants were thawed and 50 μl of the sample was assayed for cytokines using a ThermoFisher Procarta Plex 19-plex human cytokine assay kit (ThermoFisher, Carlsbad, CA) according to kit manufacturer's instructions and detected using a BioRad Bioplex-200 instrument. The data points generated from the luminex cytokine assay were transferred to a GraphPad PRISM IC50 dose-response curve analysis to generate IC50 or potency values for the JAKi's and steroids tested.

[4] = E:T ratio 1:3, all doses tested

In the case of `O=C(Nc1nc2cccc(-c3ccc(CN4CCS(=O)(=O)CC4)cc3)n2n1)C1CC1` [filgotinib], the “PPB adj. in Vitro concentration” value [1] is reported as 1.28 µM, the “clinically relevant dose level (in vitro concentration)” value [1] is reported as roughly 1 µM and the T-cell counts ([2]; E:T ratio 1:1) is reported as “increased T-cell counts in a dose-dependent manner”. The serial killing ([2]; E:T ratio 1:1) was “enhanced serial killing”, the T-cell counts [2, 4] was “no negative impacts were observed” and the serial killing [2, 4] was “no negative impacts”. The viability at 0 day, 500 nM (in vitro) was 75%, the viability at 0 day, 1000 nM (in vitro) was 75% and the viability at 4 day, 500 nM (in vitro) was 61.1%. The viability at 4 day, 1000 nM (in vitro) was 59.9%, the viability at 8 day, 500 nM (in vitro) was 78.9% and the viability at 8 day, 1000 nM (in vitro) was 85.1%. For the same compound, the viability at 12 day, 500 nM (in vitro) was 91.8%, the viability at 12 day, 1000 nM (in vitro) was 87.7% and the “Cmax” value ([3]; clinical dosing, patient sera, repeat dose studies) was 1200 ng/mL. The Protein binding ([3]; plasma protein binding, reported) was roughly 42%, the “% viability” value (CAR-T cells; dose 500 nM, day 4) was 58.7% and the “% viability” value (CAR-T cells; dose 500 nM, day 8) was 65.7%. For the same compound, the “% viability” value (CAR-T cells; dose 500 nM, day 12) was 84.5%, the “% viability” value (CAR-T cells; dose 1000 nM, day 4) was 73.1% and the “% viability” value (CAR-T cells; dose 1000 nM, day 8) was 70.9%. The “% viability” value (CAR-T cells; dose 1000 nM, day 12) was 81.6%, the “effect on T cell expansion” value (CAR-T cells; at the doses tested (Table 40)) was “little to no effect” and the “suppression of cytokine production from CAR T cells (breadth and magnitude)” value (CD19 CAR T cells) was “less effective in the breadth of cytokines suppressed and its potency to suppress particular cytokines”. For the same compound, the “Suppression of cytokine production, GMCSF (IC50)” value (CD19 CAR T cells; CD3/CD28 stimulation, 72 h) was “Suppress”, the IC50 (CD19 CAR T cells; 72 h, read-out: Suppression of cytokine production, GMCSF (IC50), K562-CD19 stimulation, 72 h) was greater than 10 µM and the IC50 (CD19 CAR T cells; 72 h, read-out: Suppression of cytokine production, GMCSF (IC50), KIP-1 stimulation, 72 h) was 6.44 µM. The IC50 (CD19 CAR T cells; 72 h, read-out: Suppression of cytokine production, GzB (IC50), CD3/CD28 stimulation, 72 h) was 7.65 µM, the IC50 (CD19 CAR T cells; 72 h, read-out: Suppression of cytokine production, GzB (IC50), K562-CD19 stimulation, 72 h) was greater than 10 µM and the IC50 (CD19 CAR T cells; 72 h, read-out: Suppression of cytokine production, GzB (IC50), KIP-1 stimulation, 72 h) was greater than 10 µM. It also gave an IC50 (CD19 CAR T cells; 72 h, read-out: Suppression of cytokine production, IFNg (IC50), CD3/CD28 stimulation, 72 h) greater than 10 µM, an IC50 (CD19 CAR T cells; 72 h, read-out: Suppression of cytokine production, IFNg (IC50), K562-CD19 stimulation, 72 h) greater than 10 µM and an IC50 (CD19 CAR T cells; 72 h, read-out: Suppression of cytokine production, IFNg (IC50), KIP-1 stimulation, 72 h) greater than 10 µM. It also gave an IC50 (CD19 CAR T cells; 72 h, read-out: Suppression of cytokine production, IL-2Ra (IC50), CD3/CD28 stimulation, 72 h) of 1.89 µM, an IC50 (CD19 CAR T cells; 72 h, read-out: Suppression of cytokine production, IL-2Ra (IC50), K562-CD19 stimulation, 72 h) of 4.82 µM and an IC50 (CD19 CAR T cells; 72 h, read-out: Suppression of cytokine production, IL-2Ra (IC50), KIP-1 stimulation, 72 h) of 0.277 µM. It also gave an IC50 (CD19 CAR T cells; 72 h, read-out: Suppression of cytokine production, IL-6 (IC50), CD3/CD28 stimulation, 72 h) of 1.71 µM, an IC50 (CD19 CAR T cells; 72 h, read-out: Suppression of cytokine production, IL-6 (IC50), KIP-1 stimulation, 72 h) of 0.716 µM and an IC50 (CD19 CAR T cells; 72 h, read-out: Suppression of cytokine production, IL-8 (IC50), CD3/CD28 stimulation, 72 h) greater than 10 µM. It also gave an IC50 (CD19 CAR T cells; 72 h, read-out: Suppression of cytokine production, IL-8 (IC50), K562-CD19 stimulation, 72 h) of 0.543 µM, an IC50 (CD19 CAR T cells; 72 h, read-out: Suppression of cytokine production, IL-8 (IC50), KIP-1 stimulation, 72 h) of 0.564 µM and an IC50 (CD19 CAR T cells; 72 h, read-out: Suppression of cytokine production, IL-10 (IC50), CD3/CD28 stimulation, 72 h) of 2.01 µM. It also gave an IC50 (CD19 CAR T cells; 72 h, read-out: Suppression of cytokine production, IL-10 (IC50), K562-CD19 stimulation, 72 h) of 0.397 µM, an IC50 (CD19 CAR T cells; 72 h, read-out: Suppression of cytokine production, IL-10 (IC50), KIP-1 stimulation, 72 h) of 0.191 µM and an IC50 (CD19 CAR T cells; 72 h, read-out: Suppression of cytokine production, MCP-1 (IC50), CD3/CD28 stimulation, 72 h) of 0.563 µM. It also gave an IC50 (CD19 CAR T cells; 72 h, read-out: Suppression of cytokine production, MCP-1 (IC50), K562-CD19 stimulation, 72 h) of 0.858 µM, an IC50 (CD19 CAR T cells; 72 h, read-out: Suppression of cytokine production, MCP-1 (IC50), KIP-1 stimulation, 72 h) of 0.559 µM and an IC50 (CD19 CAR T cells; 72 h, read-out: Suppression of cytokine production, MIG (IC50), CD3/CD28 stimulation, 72 h) greater than 10 µM. The IC50 (CD19 CAR T cells; 72 h, read-out: Suppression of cytokine production, MIG (IC50), K562-CD19 stimulation, 72 h) was 1.57 µM, the IC50 (CD19 CAR T cells; 72 h, read-out: Suppression of cytokine production, MIG (IC50), KIP-1 stimulation, 72 h) was 1.38 µM and the IC50 (CD19 CAR T cells; 72 h, read-out: Suppression of cytokine production, MIP-1a (IC50), CD3/CD28 stimulation, 72 h) was greater than 10 µM. For the same compound, the IC50 (CD19 CAR T cells; 72 h, read-out: Suppression of cytokine production, MIP-1a (IC50), K562-CD19 stimulation, 72 h) was greater than 10 µM, the IC50 (CD19 CAR T cells; 72 h, read-out: Suppression of cytokine production, MIP-1a (IC50), KIP-1 stimulation, 72 h) was greater than 10 µM and the IC50 (CD19 CAR T cells; 72 h, read-out: Suppression of cytokine production, MIP-1b (IC50), CD3/CD28 stimulation, 72 h) was greater than 10 µM. It also gave an IC50 (CD19 CAR T cells; 72 h, read-out: Suppression of cytokine production, MIP-1b (IC50), K562-CD19 stimulation, 72 h) of 9.82 µM, an IC50 (CD19 CAR T cells; 72 h, read-out: Suppression of cytokine production, MIP-1b (IC50), KIP-1 stimulation, 72 h) greater than 10 µM and an IC50 (CD19 CAR T cells; 72 h, read-out: Suppression of cytokine production, Perforin (IC50), CD3/CD28 stimulation, 72 h) of 5.46 µM. For the same compound, the IC50 (CD19 CAR T cells; 72 h, read-out: Suppression of cytokine production, Perforin (IC50), K562-CD19 stimulation, 72 h) was greater than 10 µM, the IC50 (CD19 CAR T cells; 72 h, read-out: Suppression of cytokine production, Perforin (IC50), KIP-1 stimulation, 72 h) was 2.11 µM and the IC50 (CD19 CAR T cells; 72 h, read-out: Suppression of cytokine production, TNFa (IC50), CD3/CD28 stimulation, 72 h) was 0.793 µM. For the same compound, the IC50 (CD19 CAR T cells; 72 h, read-out: Suppression of cytokine production, TNFa (IC50), K562-CD19 stimulation, 72 h) was 7.23 µM, the IC50 (CD19 CAR T cells; 72 h, read-out: Suppression of cytokine production, TNFa (IC50), KIP-1 stimulation, 72 h) was 2.24 µM and the “Suppression of cytokine production, IL-6 (IC50)” value (CD19 CAR T cells; K562-CD19 stimulation, 72 h) was “Suppress”.
